pIC50: −log10 of the molar value.

Assay [1] relates to Lolium multiflorum. The assay is described as follows: Induction of ammonia accumulation in glufosinate-susceptible Lolium multiflorum C2 (Italian ryegrass) seedlings at 3-leaf stage assessed as ammonia level per gram of leaves fresh weight at 0.4 kg Ai/ha measured 72 hr after compound treatment under greenhouse conditions (reference value: 14.79 +/- 4.09 ug/g of leaves fresh weight). The class given is functional.

For assay [2], the target named is T1, Glutamine synthetase (Lolium perenne, UniProt C5IW59).
T1 sequence (C5IW59 whole entry): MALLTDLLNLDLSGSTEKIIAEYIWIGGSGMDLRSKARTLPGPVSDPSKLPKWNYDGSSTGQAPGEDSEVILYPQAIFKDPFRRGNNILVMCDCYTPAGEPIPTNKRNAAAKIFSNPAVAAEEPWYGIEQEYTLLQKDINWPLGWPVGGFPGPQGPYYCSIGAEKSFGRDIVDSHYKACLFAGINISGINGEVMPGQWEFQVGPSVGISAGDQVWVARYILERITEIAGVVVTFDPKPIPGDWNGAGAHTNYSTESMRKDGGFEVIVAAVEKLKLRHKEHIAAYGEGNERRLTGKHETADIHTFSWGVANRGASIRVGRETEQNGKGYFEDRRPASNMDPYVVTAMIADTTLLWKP
Kind of assay: Inhibition of glutamine synthetase in glufosinate-susceptible Lolium multiflorum C1 (Italian ryegrass) seedlings. Conditions: read-out: I50.

The target of assay [3] is T1, Glutamine synthetase. Kind of assay: Inhibition of glutamine synthetase in glufosinate-resistant Lolium multiflorum MG (Italian ryegrass) seedlings. Conditions: read-out: I50.
Assay [4] has as its system Lolium multiflorum. The assay is described as follows: Induction of ammonia accumulation in glufosinate-resistant Lolium multiflorum MG (Italian ryegrass) seedlings at 3-leaf stage assessed as ammonia level per gram of leaves fresh weight at 0.4 kg Ai/ha measured 24 hr after compound treatment under greenhouse conditions (reference value: 12.41 +/- 0.97 ug/g of leaves fresh weight). In kind it is functional.

Assay [5] concerns Lolium multiflorum. Kind of assay: Induction of ammonia accumulation in glufosinate-susceptible Lolium multiflorum C1 (Italian ryegrass) seedlings at 3-leaf stage assessed as ammonia level per gram of leaves fresh weight at 0.4 kg Ai/ha measured 96 hr after compound treatment under greenhouse conditions (reference value: 11.04 +/- 0.89 ug/g of leaves fresh weight). In kind it is functional.

The subject of assay [6] is Lolium multiflorum. The assay is described as follows: Induction of ammonia accumulation in glufosinate-susceptible Lolium multiflorum C2 (Italian ryegrass) seedlings at 3-leaf stage assessed as ammonia level per gram of leaves fresh weight at 0.4 kg Ai/ha measured 96 hr after compound treatment under greenhouse conditions (reference value: 14.79 +/- 4.09 ug/g of leaves fresh weight). In kind it is functional.

The subject of assay [7] is Lolium multiflorum. Kind of assay: Induction of ammonia accumulation in glufosinate-susceptible Lolium multiflorum C1 (Italian ryegrass) seedlings at 3-leaf stage assessed as ammonia level per gram of leaves fresh weight at 0.4 kg Ai/ha measured 48 hr after compound treatment under greenhouse conditions (reference value: 11.04 +/- 0.89 ug/g of leaves fresh weight). The class given is functional.

Assay [8] deals with Lolium multiflorum. The assay is described as follows: Herbicidal activity against glufosinate-resistant Lolium multiflorum MG (Italian ryegrass) expressing one amino acid substitution in plastidic GS2 gene aspartic acid for asparagine at position 171 assessed as reduction above-ground dry weight measured after 15 days post compound treatment under greenhouse conditions. The class given is functional.

For assay [9], the system named is Lolium multiflorum. The assay is described as follows: Induction of ammonia accumulation in glufosinate-resistant Lolium multiflorum MG (Italian ryegrass) seedlings at 3-leaf stage assessed as ammonia level per gram of leaves fresh weight at 0.4 kg Ai/ha measured 96 hr after compound treatment under greenhouse conditions (reference value: 12.41 +/- 0.97 ug/g of leaves fresh weight). The class given is functional.

For assay [10], the system named is Lolium multiflorum. Kind of assay: Induction of ammonia accumulation in glufosinate-resistant Lolium multiflorum MG (Italian ryegrass) seedlings at 3-leaf stage assessed as ammonia level per gram of leaves fresh weight at 0.4 kg Ai/ha measured 48 hr after compound treatment under greenhouse conditions (reference value: 12.41 +/- 0.97 ug/g of leaves fresh weight). The class given is functional.

Assay [11] deals with Lolium multiflorum. The assay is described as follows: Resistance index, ratio of GR50 for glufosinate-resistant Lolium multiflorum MG (Italian ryegrass) expressing one amino acid substitution in plastidic GS2 gene aspartic acid for asparagine at position 171 to GR50 for glufosinate-susceptible Lolium multiflorum (Italian ryegrass)C2. In kind it is functional.
Assay [12] deals with Lolium multiflorum. The assay is described as follows: Induction of ammonia accumulation in glufosinate-susceptible Lolium multiflorum C1 (Italian ryegrass) seedlings at 3-leaf stage assessed as ammonia level per gram of leaves fresh weight at 0.4 kg Ai/ha measured 72 hr after compound treatment under greenhouse conditions (reference value: 11.04 +/- 0.89 ug/g of leaves fresh weight). In kind it is functional.

The target in assay [13] is T1, Glutamine synthetase. Kind of assay: Inhibition of glutamine synthetase in glufosinate-susceptible Lolium multiflorum C2 (Italian ryegrass) seedlings. As to conditions: read-out: I50.
The test system of assay [14] is Lolium multiflorum. Kind of assay: Induction of ammonia accumulation in glufosinate-susceptible Lolium multiflorum (Italian ryegrass) seedlings at three-leaf stage assessed as ammonia level per gram of leaves fresh weight at 0.4 kg Ai/ha measured 24 hr after compound treatment under greenhouse conditions (reference value: 11.04 +/- 0.89 ug/g of leaves fresh weight). In kind it is functional, C1.

Assay [15] relates to Lolium multiflorum. Kind of assay: Induction of ammonia accumulation in glufosinate-susceptible Lolium multiflorum C2 (Italian ryegrass) seedlings at 3-leaf stage assessed as ammonia level per gram of leaves fresh weight at 0.4 kg Ai/ha measured 24 hr after compound treatment under greenhouse conditions (reference value: 14.79 +/- 4.09 ug/g of leaves fresh weight). The class given is functional.

Assay [16] concerns Lolium multiflorum. The assay is described as follows: Resistance index, ratio of GR50 for glufosinate-resistant Lolium multiflorum MG (Italian ryegrass) expressing one amino acid substitution in plastidic GS2 gene aspartic acid for asparagine at position 171 to GR50 for glufosinate-susceptible Lolium multiflorum (Italian ryegrass)C1. In kind it is functional.
In assay [17] the test system is Lolium multiflorum. The assay is described as follows: Induction of ammonia accumulation in glufosinate-susceptible Lolium multiflorum C2 (Italian ryegrass) seedlings at 3-leaf stage assessed as ammonia level per gram of leaves fresh weight at 0.4 kg Ai/ha measured 48 hr after compound treatment under greenhouse conditions (reference value: 14.79 +/- 4.09 ug/g of leaves fresh weight). The class given is functional.

Assay [18] has as its system Lolium multiflorum. Kind of assay: Induction of ammonia accumulation in glufosinate-resistant Lolium multiflorum MG (Italian ryegrass) seedlings at 3-leaf stage assessed as ammonia level per gram of leaves fresh weight at 0.4 kg Ai/ha measured 72 hr after compound treatment under greenhouse conditions (reference value: 12.41 +/- 0.97 ug/g of leaves fresh weight). In kind it is functional.

The test system of assay [19] is Lolium multiflorum. Kind of assay: Herbicidal activity against glufosinate-susceptible Lolium multiflorum C1 (Italian ryegrass) assessed as reduction above-ground dry weight measured after 15 days post compound treatment under greenhouse conditions. The class given is functional.
In assay [20] the test system is Lolium multiflorum. Kind of assay: Herbicidal activity against glufosinate-susceptible Lolium multiflorum C2 (Italian ryegrass) assessed as reduction above-ground dry weight measured after 15 days post compound treatment under greenhouse conditions. In kind it is functional.

`CP(=O)(O)CCC(N)C(=O)O` (stereo not given) [GLUFOSINATE]: the Activity in the assay with Lolium multiflorum [1] worked out at 353 µg/g; in the assay with Lolium multiflorum [4] it was 165 µg/g; in the assay on Lolium multiflorum [5] it was 428 µg/g; in the assay with Lolium multiflorum [6] it was 384 µg/g; in the assay on Lolium multiflorum [7], 304 µg/g; in the assay on Lolium multiflorum [9], 256 µg/g. The Activity in the assay with Lolium multiflorum [10] was 187 µg/g; in the assay with Lolium multiflorum [12] it was 332 µg/g; with Lolium multiflorum [14], 225 µg/g; with Lolium multiflorum [15], 244 µg/g; in the assay on Lolium multiflorum [17], 320 µg/g; in the assay with Lolium multiflorum [18], 212 µg/g. Moreover, the pIC50 at Glutamine synthetase [2] was 4.51; on Glutamine synthetase [3], 2.61; on Glutamine synthetase [13], 3.86. Besides, the GR50 worked out at 0.45 KgAi/ha with Lolium multiflorum [8], 0.15 KgAi/ha in the assay on Lolium multiflorum [19] and 0.18 KgAi/ha in the assay with Lolium multiflorum [20]. Further, the Ratio in the assay with Lolium multiflorum [11] and in the assay on Lolium multiflorum [16] was 2.8 each time.

The record behind these values is ChEMBL document CHEMBL3044806, “Target-site mutation associated with glufosinate resistance in Italian ryegrass (Lolium perenne L. ssp. multiflorum)” (Pest Manag Sci, 2012).
